{"source": "patent US7582656B2", "about": "“Guanidine derivatives and therapeutic uses thereof” (Merck Patent Gesellschaft, priority 2004, dated 2009)", "key": {"[1]": {"system": "stably transfected cell line", "assay": "neutral red cellular toxicity check of the cultures", "format": "cell-based", "conditions": "neutral red 3 hours at 37° C., read at 540 nm", "procedure": "On another batch of plates not treated with Steady Glo, the state of the cultures is checked by microscope. The culture medium is removed and 100 μl of medium comprising neutral red are added for 3 hours at 37° C.\nThe medium is then removed and replaced for one minute with 100 μl of formaldehyde-calcium (10 ml of 37% formaldehyde+calcium chloride dihydrate 10 g qs 1 L).\nThe plate is emptied and 100 μl of acetic acid-ethanol mixture (10 ml of glacial acetic acid+500 ml of absolute ethanol qs 1 L) are added to each well for 15 minutes with stirring.\nThe plates are then read at 540 nm. The stronger the coloration, […]."}, "[2]": {"system": "human CETP promoter", "assay": "luciferase reporter under the control of the human CETP promoter, inhibition of CETP expression", "format": "cell-based", "conditions": "final concentration of 15 μM, incubated overnight, Steady Glo luciferase read by luminometer", "procedure": "The stably transfected cell line (luciferase under the control of the human CETP promoter) is maintained in the growth medium (DMEM/Hepes, F12, Glutamax, FBS and geneticin) incubated at 37° C., 95% humidity and 5% CO2 to the point of confluence. The cells are then rinsed with PBS and detached with a trypsin/EDTA mixture. The medium is changed every 2 to 3 days.\nThe resuspended cells are diluted and counted, and then distributed in microplate (96) wells.\nAbout 20 000 cells per well are distributed and incubated overnight at 37° C. with 5% CO2.\nThe compounds of the present invention are diluted to a final concentration of 15 μM and distributed in the plates containing the cells.\nThe plates are incubated overnight at 37° C. with 5% CO2.\nThe medium covering the cells is drawn off and 100 μl of Steady Glo luciferase (DMEM without phenol red/Steady Glo, V/V) are added to the cells.\nThe plates are sealed with a film and left in the dark for about 20 minutes at room temperature.\nThe plates are then read using a luminometer (1 sec/well).\nThe inhibition of CETP expression by the products is expressed as a percentage of the control: […]"}}}
{"molecule": "CC(C)CCN=C(NCC(C)(C)CN)Nc1ccc(OCc2ccccc2)cc1", "note": "[Example 5, N-(3-Amino-2,2-dimethylpropyl)-N′-(4-benzyloxyphenyl)-N″-(3-methylbutyl)-guanidine]", "values": [{"measurement": "cellular toxicity", "setting": "[1]", "value": "No cellular toxicity is detected"}, {"measurement": "activity expressed as a percentage of the control", "setting": "[2]", "value": 46, "unit": "%"}]}
{"molecule": "COCCOc1ccc(N=C(NCCCN)N2CCC(C)CC2)cc1", "note": "[Example 31, N-(3-Aminopropyl)-N′-[4-(2-methoxyethoxy)phenyl]-4-methylpiperidine-1-carboxamidine]", "values": [{"measurement": "cellular toxicity", "setting": "[1]", "value": "No cellular toxicity is detected"}, {"measurement": "activity expressed as a percentage of the control", "setting": "[2]", "value": 30, "unit": "%"}]}
{"molecule": "CCC1CCCCN1C(=Nc1ccc(OCc2ccc(C(C)(C)C)cc2)cc1)NCCCN", "note": "(centres unmarked) [Example 61, N-(3-Aminopropyl)-N′-[4-(4-tert-butylbenzyloxy)phenyl]-2-ethylpiperidine-1-carboxamidine]", "values": [{"measurement": "cellular toxicity", "setting": "[1]", "value": "No cellular toxicity is detected"}, {"measurement": "activity expressed as a percentage of the control", "setting": "[2]", "value": 33, "unit": "%"}]}
{"molecule": "NCCCNC(=Nc1ccc(OCCCC(F)(F)F)cc1)N1CCC(Cc2ccccc2)CC1", "note": "[Example 95, N-(3-Aminopropyl)-4-benzyl-N′-[4-(4,4,4-trifluorobutoxy)phenyl]piperidine-1-carboxamidine]", "values": [{"measurement": "cellular toxicity", "setting": "[1]", "value": "No cellular toxicity is detected"}, {"measurement": "activity expressed as a percentage of the control", "setting": "[2]", "value": 16, "unit": "%"}]}
